Laboratory results from patent publication US8017581B1, “MSH-agonist tripeptide conjugates” (Centre National de la Recherche Scientifique (CNRS), priority 2004, dated 2011).
Non-standard residues stand in square brackets, D forms with d. Residues, ends and D or L forms follow the SMILES beside them. *: point of attachment. Palmitoyl = CCCCCCCCCCCCCCCC(=O)*; Nle = CCCC[C@H](N)C(=O)O

What was measured:
[1] = molecular target: T1, MC1 receptor (Homo sapiens, UniProt Q01726); assay: cAMP production in M4Be human melanocyte cells (EC50 determination); assay type: cell-based; conditions: mean of at least two sets of independent experiments
T1 construct: endogenous in cells; host or cells: M4Be human melanocyte cell line
T1 sequence (Q01726 whole entry): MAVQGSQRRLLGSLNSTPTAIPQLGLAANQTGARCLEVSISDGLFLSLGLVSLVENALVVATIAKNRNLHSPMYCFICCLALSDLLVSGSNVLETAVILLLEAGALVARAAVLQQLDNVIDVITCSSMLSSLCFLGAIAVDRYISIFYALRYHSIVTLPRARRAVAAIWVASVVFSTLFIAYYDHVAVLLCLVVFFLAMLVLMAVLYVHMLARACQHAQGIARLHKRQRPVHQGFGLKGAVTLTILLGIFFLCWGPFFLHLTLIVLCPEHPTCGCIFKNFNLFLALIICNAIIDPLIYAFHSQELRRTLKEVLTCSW
Protocol: The M4Be human cell line (Jacubovich et al. Cancer Immunol. Immunother. 1979, 7, 59-64), a melanocyte cell line capable of producing melanins, was used in this study to determine the EC50 values.
The cells were maintained in Dulbecco's modified Eagle medium, with 10% of FCS, 1 mM of glutamine, 100 U/ml of penicillin and 10^−4 g/ml of streptomycin. All the cell lines were maintained at 37° C. in a 5% CO2 atmosphere, and the cell culture media were renewed every two days. The cells were plated onto a 96-well plate (Nunc, Roskilde, Denmark) 24 hours before contact with the peptides.
(§1) Briefly, the cells plated out the day before were incubated for 1 hour with 10^−4 M of adenine (Sigma) and then for 10 minutes in Krebs Ringer Hepes medium with 10^−4 M of isobutyl-1-methylxanthine (Sigma), 10^−4 M of 4-[(3-butoxy-4-methoxyphenyl)methyl]-2-imidazolidinone (Calbiochem) and tripeptides according to the invention, at 10^−7 M.
(§2) After this period of time, cell lysis was carried out according to the manufacturer's protocol.
The cAMP content was measured using a competition binding assay kit (RPN225, Amersham Pharmacia Biotech) according to the manufacturer's instructions. Each independent experiment was carried out at least twice in triplicate.
Determination of the EC50:
The curves were adjusted and the EC50 values were determined with nonlinear regression in the GraphPad Prism (GraphPad software). Each EC50 value was the mean of at least two sets of independent experiments.

[2] = molecular target: T2, MC1 receptor (Mus musculus, UniProt Q01727); assay: cAMP induction on Cloudman S91 mouse melanoma cell line (preliminary screening); assay type: cell-based; conditions: tripeptide at 50 nM, percentage of the maximum response with control peptide (1) at 50 nM
T2 construct: The Cloudman S91 mouse melanoma cell line (Yasumara et al. Science. 154, pages 1186-1189) was used for the preliminary screening; endogenous in cells; host or cells: Cloudman S91 mouse melanoma cells
T2 sequence (Q01727 whole entry): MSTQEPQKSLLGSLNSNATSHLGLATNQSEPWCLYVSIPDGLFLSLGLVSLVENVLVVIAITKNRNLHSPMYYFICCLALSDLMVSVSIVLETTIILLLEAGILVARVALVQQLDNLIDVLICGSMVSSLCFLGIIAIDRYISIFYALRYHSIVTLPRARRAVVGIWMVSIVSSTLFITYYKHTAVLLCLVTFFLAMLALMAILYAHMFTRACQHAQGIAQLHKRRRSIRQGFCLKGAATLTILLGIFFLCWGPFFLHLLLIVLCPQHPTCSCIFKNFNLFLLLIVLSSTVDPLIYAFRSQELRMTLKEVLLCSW
Protocol: The Cloudman S91 mouse melanoma cell line (Yasumara et al. Science. 154, pages 1186-1189) was used for the preliminary screening. The cells were maintained in HAM F10 with 10% of horse serum, 2% of fetal calf serum (FCS), 1 mM of glutamine, 100 U/ml of penicillin and 10^−4 g/ml of streptomycin (Eurobio, Les Ulis, France). All the cell lines were maintained at 37° C. in a 5% CO2 atmosphere, and the cell culture media were renewed every two days. The cells were plated out onto a 96-well plate (Nunc, Roskilde, Denmark) 24 hours before contact with the peptides.
as §1, §2
The cAMP content was measured using a competition binding assay kit (RPN225, Amersham Pharmacia Biotech) according to the manufacturer's instructions. […]
Thus, 1 tripeptide according to the invention was tested, at a concentration of 50 nM, on the induction of cAMP, which was calculated with respect to the response of cAMP production induced by α-MSH (50 nM).

SMILES | EC50 [1] [nM] | % cAMP induction [2] [%]
CCCC[C@H](NC(C)=O)C(=O)N[C@@H](C)C(=O)N[C@@H](Cc1c[nH]cn1)C(=O)N[C@H](Cc1ccccc1)C(=O)N[C@@H](CCCNC(=N)N)C(=O)N[C@@H](Cc1c[nH]c2ccccc12)C(N)=O [control peptide, Ac-Nle-Ala-His-(D)Phe-Arg-Trp-NH2, reference compound] (Ac-[Nle]AH[dF]RW-NH2) | 4 | 
CCCCCCCCCCCCCCCC(=O)N[C@@H](Cc1c[nH]cn1)C(=O)N[C@H](Cc1ccccc1)C(=O)N[C@@H](Cc1c[nH]c2ccccc12)C(N)=O [tripeptide 2, Palm-His-DPhe-Trp-NH2] (Palmitoyl-His-[dF]-Trp-NH2) | 17.3 | 
CCCCCCCCCCCCCCCC(=O)N[C@@H](Cc1c[nH]cn1)C(=O)N[C@H](Cc1ccccc1)C(=O)N[C@@H](CCCNC(=N)N)C(N)=O [tripeptide 1, Palm-His-DPhe-Arg-NH2] (Palmitoyl-His-[dF]-Arg-NH2) | 2.3 | 147
